Our source for the IC50, Kd and Km values is paper doi:10.1101/2025.11.12.687946v2 (biorxiv, 2025).

The target in data set [1] is T1, PaSuhB (Pseudomonas aeruginosa, UniProt Q9HXI4).
T1 sequence (Q9HXI4 1-271): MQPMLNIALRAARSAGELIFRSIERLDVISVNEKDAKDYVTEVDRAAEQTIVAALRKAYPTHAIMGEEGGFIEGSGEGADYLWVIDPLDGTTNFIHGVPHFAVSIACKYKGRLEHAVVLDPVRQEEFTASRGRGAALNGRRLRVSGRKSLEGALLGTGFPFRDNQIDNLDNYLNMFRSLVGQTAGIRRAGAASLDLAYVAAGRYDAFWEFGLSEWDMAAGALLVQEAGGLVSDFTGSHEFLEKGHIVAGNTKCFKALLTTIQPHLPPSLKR
The data set is described as follows: biochemical.

Data set [2] has as its target T1, PaSuhB. The data set is described as follows: biochemical. This is another data set of the same source.
Substrate in the data set “purified protein”: O=P(O)(O)O[C@@H]1[C@H](O)[C@H](O)[C@@H](O)[C@H](O)[C@H]1O
The data set is described as follows: purified protein. As to conditions: Mg2+, pH 8.0, 37 °C, no inhibitor.

By IC50 is commonly meant the concentration needed to halve the response being measured. Lower therefore signals greater potency in that assay. The term Kd denotes the equilibrium constant for the complex coming apart. Take `O=C(O)c1cc(O)c(O)c(O)c1` [GDE, 3,4,5-trihydroxybenzoic acid]: the 50% inhibitory concentration (IC50) at PaSuhB [1] was about 1340 µM. Besides, binding on PaSuhB [2] was characterised by a dissociation constant (Kd) of 8.71 µM.

B1: PaSuhB (Pseudomonas aeruginosa PAO1) (protein)
chain: MQPMLNIALRAARSAGELIFRSIERLDVISVNEKDAKDYVTEVDRAAEQTIVAALRKAYPTHAIMGEEGGFIEGSGEGADYLWVIDPLDGTTNFIHGVPHFAVSIACKYKGRLEHAVVLDPVRQEEFTASRGRGAALNGRRLRVSGRKSLEGALLGTGFPFRDNQIDNLDNYLNMFRSLVGQTAGIRRAGAASLDLAYVAAGRYDAFWEFGLSEWDMAAGALLVQEAGGLVSDFTGSHEFLEKGHIVAGNTKCFKALLTTIQPHLPPSLKR
By Km is commonly meant the concentration of substrate that gives half-maximal velocity. For the molecule B1, the Michaelis constant (Km) in “purified protein” is 43.82 µM.
